{
  "source": "ChEMBL document CHEMBL3244035",
  "about": "“Synthesis and hypoglycemic activity of 4-substituted 3-mercaptopicolinic acids” (J Med Chem, 1977)",
  "test_system": "Rattus norvegicus",
  "experiment": "Hypoglycemic activity in 48 hrs fasted rat assessed as reduction in blood glucose at 150 mg/kg, po measured 1 to 4 hrs post challenge",
  "assay_type": "functional, organism-based",
  "set-up": "dose 150 mg/kg",
  "note": "The source made the active and inactive calls. No cut-off for these calls is given here.",
  "data": [
    {"smiles": "CSc1ccnc(C(=O)O)c1S", "values": [
      {"measurement": "Activity", "result": "inactive"}
    ]},
    {"smiles": "COc1ccnc(C(=O)O)c1S", "values": [
      {"measurement": "Activity", "result": "inactive"}
    ]},
    {"smiles": "O=C(O)c1nccc(Oc2ccccc2)c1S", "values": [
      {"measurement": "Activity", "result": "inactive"}
    ]},
    {"smiles": "O=C(O)c1nccc(S)c1S", "values": [
      {"measurement": "Activity", "result": "inactive"}
    ]},
    {"smiles": "Nc1ccnc(C(=O)O)c1S", "values": [
      {"measurement": "Activity", "result": "inactive"}
    ]},
    {"smiles": "O=C(O)c1nccc(Cl)c1S", "values": [
      {"measurement": "Activity", "result": "inactive"}
    ]},
    {"smiles": "CCc1ccnc(C(=O)O)c1S", "values": [
      {"measurement": "Activity", "result": "inactive"}
    ]}
  ]
}
